Measured values as given in patent US9896445B2, “Heterocyclic inhibitors of ERK1 and ERK2 and their use in the treatment of cancer” (Asana Biosciences, LLC, priority 2015, dated 2018).

What was measured:
[1] = target: T1, ERK1 (Homo sapiens, UniProt P27361); assay: ERK1 HTRF (biochemical) assay
T1 construct: purchased Jubilant Biosys
Experimental: ERK1 and ERK2 HTRF (Biochemical) Assays
These assays employed a homogeneous time resolved fluorescence (HTRF) technique. […] The plate was incubated at room temperature for 60 min with shaking. […] The IC50 values (half maximal inhibitory concentration values) were subsequently determined using a sigmoidal dose-response curve (variable slope) in GraphPad Prism® 5 software.

[2] = target: T2, ERK2 (Homo sapiens, UniProt P28482); assay: ERK2 HTRF (biochemical) assay
T2 construct: purchased Jubilant Biosys
T2 sequence (P28482 whole entry): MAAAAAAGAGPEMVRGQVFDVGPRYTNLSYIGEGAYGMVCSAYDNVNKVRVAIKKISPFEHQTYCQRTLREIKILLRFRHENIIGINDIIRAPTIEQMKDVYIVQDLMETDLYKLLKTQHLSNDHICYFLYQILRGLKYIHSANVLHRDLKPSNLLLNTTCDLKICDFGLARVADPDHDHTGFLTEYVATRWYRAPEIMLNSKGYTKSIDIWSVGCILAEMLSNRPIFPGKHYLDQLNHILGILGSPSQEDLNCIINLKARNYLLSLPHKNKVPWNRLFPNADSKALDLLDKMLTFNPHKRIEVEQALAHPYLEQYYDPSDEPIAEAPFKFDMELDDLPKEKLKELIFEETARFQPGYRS
Summary of the method: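 Compounds were tested as half-log dilutions from 0.0005 to 10 uM in Tris pH 7.5/MgCl2 buffer, with a substrate mix of 1 uM biotin-MBP peptide and 24 uM ATP and an enzyme mix of 25 nM ERK2. Reaction ran 60 min at room temperature. Phospho-MBP was detected by HTRF (Eu-anti-phospho-MBP/SA-APC, 665/620 nm), and IC50 was fitted with a variable-slope sigmoidal curve.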

T1 sequence (P27361 whole entry): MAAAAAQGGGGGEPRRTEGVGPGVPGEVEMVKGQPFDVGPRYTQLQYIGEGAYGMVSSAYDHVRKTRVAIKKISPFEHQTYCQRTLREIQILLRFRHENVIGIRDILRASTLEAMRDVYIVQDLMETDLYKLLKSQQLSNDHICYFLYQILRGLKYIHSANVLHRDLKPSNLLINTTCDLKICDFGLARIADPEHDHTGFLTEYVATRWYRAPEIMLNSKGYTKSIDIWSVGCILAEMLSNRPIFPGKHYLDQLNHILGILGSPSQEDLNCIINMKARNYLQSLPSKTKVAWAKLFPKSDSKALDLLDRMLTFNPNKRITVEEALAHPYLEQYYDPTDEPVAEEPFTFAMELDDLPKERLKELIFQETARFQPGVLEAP

IC50 ([1]; HTRF) | IC50 ([2]; HTRF) | IC50 ([1]; HTRF biochemical assay) | IC50 ([2]; HTRF biochemical assay) | SMILES
< 50 nM | ≤ 50 nM | – | – | O=C(NC(CO)c1ccccc1)c1ccn(-c2nc(Nc3ccc4c(c3)OCO4)ncc2F)c1 (stereo not drawn) [Compound 66, 1-(2-(benzo[d][1,3]dioxol-5-ylamino)-5-fluoropyrimidin-4-yl)-N-(2-hydroxy-1-phenylethyl)-1H-pyrrole-3-carboxamide]
< 50 nM | ≤ 50 nM | – | – | Cc1cnc(Nc2ccc3c(c2)OCO3)nc1-n1ccc(C(=O)NC(CO)c2ccccc2)c1 (stereo not drawn) [Compound 47, 1-(2-(benzo[d][1,3]dioxol-5-ylamino)-5-methylpyrimidin-4-yl)-N-(2-hydroxy-1-phenylethyl)-1H-pyrrole-3-carboxamide]
< 50 nM | ≤ 50 nM | – | – | Cc1cnc(NC2CCCOC2)nc1-n1ccc(C(=O)NC(CO)c2ccccc2)c1 (stereo not drawn) [Compound 141, N-(2-hydroxy-1-phenylethyl)-1-(5-methyl-2-((tetrahydro-2H-pyran-3-yl)amino)-pyrimidin-4-yl)-1H-pyrrole-3-carboxamide]
< 50 nM | ≤ 50 nM | – | – | Cc1cnc(Nc2ccc(F)c(N3CCOCC3)c2)nc1-n1ccc(C(=O)NC(CO)c2cccc(Cl)c2)c1 (stereo not drawn) [Compound 175, N-(1-(3-chloro-phenyl)-2-hydroxy-ethyl)-1-(2-((4-fluoro-3-morpholinophenyl)amino)-5-methyl-pyrimidin-4-yl)-1H-pyrrole-3-carboxamide]
< 50 nM | ≤ 50 nM | – | – | Cc1cnc(NC2CCOc3ccccc32)nc1-n1cnc(C(=O)N[C@H](CN)c2cccc(Cl)c2)c1 (stereo partly drawn) [Example 271, N-((S)-2-amino-1-(3-chlorophenyl)ethyl)-1-(2-(chroman-4-ylamino)-5-methylpyrimidin-4-yl)-1H-imidazole-4-carboxamide]
< 50 nM | ≤ 50 nM | – | – | Cc1cnc(Nc2cccnc2)cc1-n1ccc(C(=O)NC(CO)c2ccccc2)c1 (stereo not drawn) [Compound 81, N-(2-hydroxy-1-phenylethyl)-1-(5-methyl-2-(pyridin-3-ylamino)pyridin-4-yl)-1H-pyrrole-3-carboxamide]

Second part, the compound before the results:

SMILES | IC50 ([1]; HTRF) | IC50 ([2]; HTRF) | IC50 ([1]; HTRF biochemical assay) | IC50 ([2]; HTRF biochemical assay)
Cc1cnc(Nc2ccc3c(c2)OC(C)(C)O3)nc1-n1ccc(C(=O)NC(CO)c2cccc(Cl)c2)c1 (stereo not drawn) [Compound 96, N-(1-(3-chloro-phenyl)-2-hydroxyethyl)-1-(2-((2,2-dimethyl-benzo[d][1,3]dioxol-5-yl)amino)-5-methylpyrimidin-4-yl)-1H-pyrrole-3-carboxamide] | < 50 nM | ≤ 50 nM | – | –
Cc1cnc(NC2CCOCC2)nc1-n1cnc(C(=O)NCc2ccccc2CN)c1 [Example 283, N-(2-(amino-methyl)benzyl)-1-(5-methyl-2-((tetrahydro-2H-pyran-4-yl)amino)-pyrimidin-4-yl)-1H-imidazole-4-carbox amide] | < 50 nM | ≤ 50 nM | – | –
Cc1cnc(NC2CCOCC2)nc1-n1cnc(C(=O)N[C@H](CNCCO)c2cccc(Cl)c2)c1 [Example 333, (S)-N-(1-(3-chlorophenyl)-2-((2-hydroxyethyl)amino)ethyl)-1-(5-methyl-2-((tetrahydro-2H-pyran-4-yl)amino)-pyrimidin-4-yl)-1H-imidazole-4-carboxamide] | – | – | < 50 nM | ≤ 50 nM
CC(=O)OCc1c(Cl)cccc1CNC(=O)c1cn(-c2nc(N[C@H]3CCOC3)ncc2C)cn1 [Example 342, (S)-2-chloro-6-((1-(5-methyl-2-((tetrahydrofuran-3-yl)amino)pyrimidin-4-yl)-1H-imidazole-4-carboxamido)-methyl)benzyl acetate] | – | – | < 50 nM | ≤ 50 nM
Cc1cnc(Nc2ccc(F)cc2)nc1-n1cnc(C(=O)NC(CO)c2cccc(Cl)c2)c1 (stereo not drawn) [Compound 155, N-(1-(3-chlorophenyl)-2-hydroxyethyl)-1-(2-((4-fluoro-phenyl)amino)-5-methylpyrimidin-4-yl)-1H-imidazole-4-carboxamide] | < 50 nM | ≤ 50 nM | – | –
CC[C@H](CO)Nc1ncc(C)c(-n2cnc(C(=O)NCc3cccc(Cl)c3CO)c2)n1 [Example 336, (R)-N-(3-chloro-2-(hydroxymethyl)-benzyl)-1-(2-((1-hydroxybutan-2-yl)amino)-5-methylpyrimidin-4-yl)-1H-imidazole-4-carboxamide] | – | – | < 50 nM | ≤ 50 nM
